Reference: patent publication US10941174B2, “Non-caloric sweetener” (Conagen Inc., priority 2014, dated 2021)

What was measured:
[1] = Sensory evaluation (taste test) of Reb D3 against sucrose controls by a panel of nine volunteers; assay type: in vivo, human; settings: for overall % sweetness equivalence (SE) average: room temperature, vs 1.0%, 3.0%, 6.0% sucrose (w/v), nine volunteers
Protocol: In this Example, a taste test was conducted on Reb D3.
Sensory evaluation of Reb D3 was performed using sucrose as a control. The sucrose sample purchased from Sigma-Aldrich and prepared control samples at three different concentrations of 1.0%, 3.0%, and 6.0% sucrose in bottled water (w/v) at room temperature. The steviol glycoside Reb D3 at 300, and 600 ppm for sensory evaluation was prepared by adding corresponding mass into a 1000 mL of bottled water. The mixture was stirred at room temperature and the steviol glycoside sample was then evaluated against several control sucrose samples at 1.0%, 3.0%, and 6.0% by a panel of nine volunteers.

[2] = Solubility in water of Reb D3 compared to Reb D; assay type: physicochemical
Source text: In this Example, the solubility of Reb D3 was compared to Reb D.

[3] = background statement; cited from earlier work

C=C1C[C@@]23CCC4[C@](C)(C(=O)OC5OC(CO)C(O)C(O)C5OC5OC(CO)C(O)C(O)C5O)CCC[C@@]4(C)[C@@H]2CCC1(OC1OC(COC2OC(CO)C(O)C(O)C2O)C(O)C(O)C1OC1OC(CO)C(O)C(O)C1O)C3 (stereo partly drawn) [Reb D3, 13-[(2-O-β-D-glucopyranosyl-6-O-β-D-glucopyranosyl-β-D-glucopyranosyl)oxy] ent-kaur-16-en-19-oic acid-(2-O-β-D-glucopyranosyl-β-D-glucopyranosyl) ester]
overall % sweetness equivalence (SE) average ([1]; 300 ppm in bottled water): about 2.4%
overall % sweetness equivalence (SE) average ([1]; 600 ppm in bottled water): ~5.4%
times sweeter to sucrose ([1]; from SE at 300 and 600 ppm): 80-90 times
solubility in water compared with Reb D [2]: higher solubility in water than does Reb D
dissolution in water ([2]; solutions of 0.25 mM, 0.5 mM, 1 mM, 1.5 mM, 2 mM, 5 mM and 10 mM in water): completely dissolved in water immediately

C=C1C[C@@]23CC[C@H]4[C@@](C)(CCC[C@@]4(C)C(=O)O[C@@H]4O[C@H](CO)[C@@H](O)[C@H](O)[C@H]4O[C@@H]4O[C@H](CO)[C@@H](O)[C@H](O)[C@H]4O)[C@@H]2CC[C@]1(O[C@@H]1O[C@H](CO)[C@@H](O)[C@H](O[C@@H]2O[C@H](CO)[C@@H](O)[C@H](O)[C@H]2O)[C@H]1O[C@@H]1O[C@H](CO)[C@@H](O)[C@H](O)[C@H]1O)C3 [Reb D, Rebaudioside D]
dissolution in water when heated ([2]; 0.5 mM, 1 mM, 1.5 mM, 2 mM, 5 mM and 10 mM, heated at 30° C. for 72 hours): did not dissolve
concentration that totally dissolved in water ([2]; tested 0.25-10 mM in water): 250 µM

C=C1C[C@@]23CC[C@H]4[C@@](C)(CCC[C@@]4(C)C(=O)O[C@@H]4O[C@H](CO)[C@@H](O)[C@H](O)[C@H]4O)[C@@H]2CC[C@]1(O[C@@H]1O[C@H](CO)[C@@H](O)[C@H](O)[C@H]1O[C@@H]1O[C@H](CO)[C@@H](O)[C@H](O)[C@H]1O)C3 [Stevioside]
after-taste [3]: bitter after-taste
times sweeter than sucrose [3]: 100-150 times

C=C1C[C@@]23CC[C@H]4[C@@](C)(CCC[C@@]4(C)C(=O)O[C@@H]4O[C@H](CO)[C@@H](O)[C@H](O)[C@H]4O)[C@@H]2CC[C@]1(O[C@@H]1O[C@H](CO)[C@@H](O)[C@H](O)[C@H]1O[C@@H]1O[C@@H](C)[C@H](O)[C@@H](O)[C@H]1O)C3 [Dulcoside A]
times sweeter than sucrose [3]: about 30 times

C=C1C[C@@]23CC[C@H]4[C@@](C)(CCC[C@@]4(C)C(=O)O[C@@H]4O[C@H](CO)[C@@H](O)[C@H](O)[C@H]4O)[C@@H]2CC[C@]1(O[C@@H]1O[C@H](CO)[C@@H](O)[C@H](O[C@@H]2O[C@H](CO)[C@@H](O)[C@H](O)[C@H]2O)[C@H]1O[C@@H]1O[C@@H](C)[C@H](O)[C@@H](O)[C@H]1O)C3 [Rebaudioside C]
times sweeter than sucrose [3]: 40-60 times

C=C1C[C@@]23CCC4[C@](C)(C(=O)OC5OC(CO)C(O)C(O)C5OC5OC(CO)C(O)C(O)C5O)CCC[C@@]4(C)[C@@H]2CCC1(OC1OC(CO)C(O)C(O)C1OC1OC(CO)C(O)C(O)C1O)C3 (stereo partly shown) [rebaudioside E, Rebaudioside E]
after-taste [3]: less of an after-taste than stevioside

C=C1C[C@@]23CC[C@H]4[C@@](C)(CCC[C@@]4(C)C(=O)O[C@@H]4O[C@H](CO)[C@@H](O)[C@H](O)[C@H]4O)[C@@H]2CC[C@]1(O[C@@H]1O[C@H](CO)[C@@H](O)[C@H](O[C@@H]2O[C@H](CO)[C@@H](O)[C@H](O)[C@H]2O)[C@H]1O[C@@H]1O[C@H](CO)[C@@H](O)[C@H](O)[C@H]1O)C3 [Rebaudioside A]
after-taste [3]: less of an after-taste than stevioside
